From patent US8207177B2, “Inhibitors of E1 activating enzymes” (Millennium Pharmaceuticals, Inc., priority 2006, dated 2012)

Target: T1, recombinant human NAE enzyme (Homo sapiens, UniProt Q8TBC4)
T1 construct: His (N); made in house; host or cells: Sf9 insect cells (baculovirus, Bac-to-Bac), purified on Ni-NTA
T1 sequence (Q8TBC4 1-463): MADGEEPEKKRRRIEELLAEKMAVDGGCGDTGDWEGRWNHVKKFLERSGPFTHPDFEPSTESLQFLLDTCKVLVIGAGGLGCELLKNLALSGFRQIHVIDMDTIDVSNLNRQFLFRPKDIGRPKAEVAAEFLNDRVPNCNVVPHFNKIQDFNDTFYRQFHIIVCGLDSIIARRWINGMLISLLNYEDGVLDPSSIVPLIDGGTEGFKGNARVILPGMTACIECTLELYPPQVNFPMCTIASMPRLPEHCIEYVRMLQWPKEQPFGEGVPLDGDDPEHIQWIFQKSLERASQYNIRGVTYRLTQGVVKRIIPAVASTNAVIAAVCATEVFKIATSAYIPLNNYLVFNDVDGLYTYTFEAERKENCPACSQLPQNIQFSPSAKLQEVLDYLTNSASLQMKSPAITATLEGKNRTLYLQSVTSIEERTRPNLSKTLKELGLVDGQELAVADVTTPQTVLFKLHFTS
T1 sequence (Q13564 1-534 partner): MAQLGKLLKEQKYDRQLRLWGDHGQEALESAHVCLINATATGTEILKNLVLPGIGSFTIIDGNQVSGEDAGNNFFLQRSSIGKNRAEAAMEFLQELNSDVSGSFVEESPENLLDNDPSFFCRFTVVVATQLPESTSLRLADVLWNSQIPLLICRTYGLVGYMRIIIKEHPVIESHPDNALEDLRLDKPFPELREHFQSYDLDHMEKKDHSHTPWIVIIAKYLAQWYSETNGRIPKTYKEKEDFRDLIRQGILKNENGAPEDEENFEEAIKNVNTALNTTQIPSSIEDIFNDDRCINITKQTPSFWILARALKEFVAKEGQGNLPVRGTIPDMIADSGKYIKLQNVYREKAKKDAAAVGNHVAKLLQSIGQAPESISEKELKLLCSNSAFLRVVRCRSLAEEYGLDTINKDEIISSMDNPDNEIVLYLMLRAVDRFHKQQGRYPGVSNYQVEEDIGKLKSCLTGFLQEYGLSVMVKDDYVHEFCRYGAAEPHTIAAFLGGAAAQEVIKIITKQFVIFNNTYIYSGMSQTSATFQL
Experiment: Nedd8-Activating Enzyme (NAE) HTRF Assay
Format: biochemical
Details: threshold statement: less than or equal to 100 nM; 20 μM ATP, 90 minutes at 24° C.
How it was run: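 Sf9-expressed NAEα/His-NAEβ complex (0.28 nM) with 0.075 μM Nedd8-Flag, 0.01 μM Ubc12-GST, 20 μM ATP in 50 mM HEPES pH 7.5, 5 mM MgCl2, 250 μM GSH, 0.05% BSA; 90 min at 24 °C. EDTA stop, then Eu-cryptate anti-FLAG/XL-APC anti-GST detection for 3 h at 24 °C, HTRF read-out.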

| IC50 [nM] | SMILES |
| --- | --- |
| ≤ 100 | NS(=O)(=O)OCC[C@@H]1C[C@@H](n2ccc3c(N[C@H]4CCc5ccccc54)ncnc32)C[C@@H]1O [Compound I-76, 2-((1S,2S,4R)-4-{4-[(1S)-2,3-dihydro-1H-inden-1-ylamino]-7H-pyrrolo[2,3-d]pyrimidin-7-yl}-2-hydroxycyclopentyl)ethyl sulfamate] |
| ≤ 100 | COC[C@@H]1Cc2ccccc2[C@@H]1Nc1ncnc2c1ccn2[C@@H]1C[C@@H](COS(N)(=O)=O)[C@@H](O)C1 [Compound I-79, [(1S,2S,4R)-2-hydroxy-4-(4-{[(1R,2R)-2-(methoxymethyl)-2,3-dihydro-1H-inden-1-yl]amino}-7H-pyrrolo[2,3-d]pyrimidin-7-yl)cyclopentyl]methyl sulfamate] |
| ≤ 100 | C[C@@H]1Cc2ccccc2[C@@H]1Nc1ncnc2c1ccn2[C@@H]1C[C@@H](COS(N)(=O)=O)[C@@H](O)C1 [Compound I-81, [(1S,2S,4R)-2-hydroxy-4-(4-{[(1R,2R)-2-methyl-2,3-dihydro-1H-inden-1-yl]amino)-7H-pyrrolo[2,3-d]pyrimidin-7-yl)cyclopentyl]methyl sulfamate] |
| ≤ 100 | C[C@H]1Cc2ccccc2[C@H]1Nc1ncnc2c1ccn2[C@@H]1C[C@@H](COS(N)(=O)=O)[C@@H](O)C1 [Compound I-82, [(1S,2S,4R)-2-hydroxy-4-(4-{[(1S,2S)-2-methyl-2,3-dihydro-1H-inden-1-yl]amino}-7H-pyrrolo[2,3-d]pyrimidin-7-yl)cyclopentyl]methyl sulfamate] |
| ≤ 100 | CC[C@@H]1Cc2ccccc2[C@@H]1Nc1ncnc2c1ccn2[C@@H]1C[C@@H](COS(N)(=O)=O)[C@@H](O)C1 [Compound I-83, [(1S,2S,4R)-4-(4-{[(1R,2R)-2-ethyl-2,3-dihydro-1H-inden-1-yl]amino}-7H-pyrrolo[2,3-d]pyrimidin-7-yl)-2-hydroxycyclopentyl]methyl sulfamate] |
| ≤ 100 | CC[C@H]1Cc2ccccc2[C@H]1Nc1ncnc2c1ccn2[C@@H]1C[C@@H](COS(N)(=O)=O)[C@@H](O)C1 [Compound I-84, [(1S,2S,4R)-4-(4-{[(1S,2S)-2-ethyl-2,3-dihydro-1H-inden-1-yl]amino}-7H-pyrrolo[2,3-d]pyrimidin-7-yl)-2-hydroxycyclopentyl]methyl sulfamate] |
| ≤ 100 | CO[C@H]1CCc2ccccc2[C@H]1Nc1ncnc2c1ccn2[C@@H]1C[C@@H](COS(N)(=O)=O)[C@@H](O)C1 [Compound I-85, [(1S,2S,4R)-2-hydroxy-4-(4-{[(1R,2S)-2-methoxy-1,2,3,4-tetrahydronaphthalen-1-yl]amino}-7H-pyrrolo[2,3-d]pyrimidin-7-yl)cyclopentyl]methyl sulfamate] |

Second part, the compound before the results:

| SMILES | IC50 [nM] |
| --- | --- |
| NS(=O)(=O)OC[C@@H]1C[C@@H](n2ccc3c(N[C@H]4CCc5c(Br)cccc54)ncnc32)C[C@@H]1O [Compound I-65, [(1S,2S,4R)-4-(4-{[(1S)-4-bromo-2,3-dihydro-1H-inden-1-yl]amino}-7H-pyrrolo[2,3-d]pyrimidin-7-yl)-2-hydroxycyclopentyl]methyl sulfamate] | ≤ 100 |
| NS(=O)(=O)OC[C@@H]1C[C@@H](n2ccc3c(N[C@H]4CCc5cccc(F)c54)ncnc32)C[C@@H]1O [Compound I-66, [(1S,2S,4R)-4-(4-{[(1S)-7-fluoro-2,3-dihydro-1H-inden-1-yl]amino}-7H-pyrrolo[2,3-d]pyrimidin-7-yl)-2-hydroxycyclopentyl]methyl sulfamate] | ≤ 100 |
| CC1(C)C[C@H](Nc2ncnc3c2ccn3[C@@H]2C[C@@H](COS(N)(=O)=O)[C@@H](O)C2)c2ccc(Cl)cc21 [Compound I-67, [(1S,2S,4R)-4-(4-{[(1S)-5-chloro-3,3-dimethyl-2,3-dihydro-1H-inden-1-yl]amino)-7H-pyrrolo[2,3-d]pyrimidin-7-yl)-2-hydroxycyclopentyl]methyl sulfamate] | ≤ 100 |
| NS(=O)(=O)OC[C@@H]1C[C@@H](n2cc(F)c3c(N[C@H]4CCc5ccccc54)ncnc32)C[C@@H]1O [Compound I-68, ((1S,2S,4R)-4-{4-[(1S)-2,3-dihydro-1H-inden-1-ylamino]-5-fluoro-7H-pyrrolo[2,3-d]pyrimidin-7-yl}-2-hydroxycyclopentyl)methyl sulfamate] | ≤ 100 |
| CO[C@H]1Cc2ccccc2[C@H]1Nc1ncnc2c1c(F)cn2[C@@H]1C[C@@H](COS(N)(=O)=O)[C@@H](O)C1 [Compound I-69, [(1S,2S,4R)-4-(5-fluoro-4-{[(1R,2S)-2-methoxy-2,3-dihydro-1H-inden-1-yl]amino}-7H-pyrrolo[2,3-d]pyrimidin-7-yl)-2-hydroxycyclopentyl]methyl sulfamate] | ≤ 100 |
| CCO[C@H]1Cc2ccccc2[C@H]1Nc1ncnc2c1ccn2[C@@H]1C[C@@H](COS(N)(=O)=O)[C@@H](O)C1 [Compound I-70, [(1S,2S,4R)-4-(4-{[(1R,2S)-2-ethoxy-2,3-dihydro-1H-inden-1-yl]amino}-7H-pyrrolo[2,3-d]pyrimidin-7-yl)-2-hydroxycyclopentyl]methyl sulfamate] | ≤ 100 |
| NS(=O)(=O)OC[C@@H]1C[C@@H](n2ccc3c(N[C@@H]4c5ccccc5C[C@@H]4O)ncnc32)C[C@@H]1O [Compound I-71, [(1S,2S,4R)-2-hydroxy-4-(4-{[(1R,2S)-2-hydroxy-2,3-dihydro-1H-inden-1-yl]amino}-7H-pyrrolo[2,3-d]pyrimidin-7-yl)cyclopentyl]methyl sulfamate] | ≤ 100 |
| CO[C@@H]1Cc2ccccc2[C@H]1Nc1ncnc2c1ccn2[C@@H]1C[C@@H](COS(N)(=O)=O)[C@@H](O)C1 [Compound I-72, [(1S,2S,4R)-2-hydroxy-4-(4-{[(1R,2R)-2-methoxy-2,3-dihydro-1H-inden-1-yl]amino}-7H-pyrrolo[2,3-d]pyrimidin-7-yl)cyclopentyl]methyl sulfamate] | ≤ 100 |
| NS(=O)(=O)/C=C/[C@@H]1C[C@@H](n2ccc3c(N[C@H]4CCc5ccccc54)ncnc32)C[C@@H]1O [Compound I-73, (E)-2-((1S,2S,4R)-4-{4-[(1S)-2,3-dihydro-1H-inden-1-ylamino]-7H-pyrrolo[2,3-d]pyrimidin-7-yl}-2-hydroxycyclopentyl)ethylenesulfonamide] | ≤ 100 |
| CO[C@H]1Cc2ccccc2[C@H]1Nc1ncnc2c1ccn2[C@@H]1C[C@@H](CNS(N)(=O)=O)[C@@H](O)C1 [Compound I-74, N-{[(1S,2S,4R)-2-hydroxy-4-(4-{[(1R,2S)-2-methoxy-2,3-dihydro-1H-inden-1-yl]amino}-7H-pyrrolo[2,3-d]pyrimidin-7-yl)cyclopentyl]methyl}sulfamide] | ≤ 100 |
